# From patent US6656955B2, “Pharmaceutical composition having enhanced antitumor activity and/or reduced side effects, containing an antitumor agent and an hydroximic acid derivative” (priority 1997, dated 2003)
# Legend:
# P-388 leukemia cells = assay: Survival of mice inoculated with P-388 leukemia; format: in vivo, BDF1 mice; conditions: for Long term Percent survival / Long term Survivors/Total: day 45
# Method: (§1) In vivo experiments with mice. Single or repeated treatments started on day 1 following transplantation of P-388 or S-180 tumor The therapeutic effectiveness was evaluated on the basis of survival time and tumor volume. The experiments were terminated after 45 days. Long-term survival of mice were not followed beyond 45 days, but the end point was on day 46 following tumor transplantation. The comparative antitumor effect of various treatment groups on the median survival time in days for treated versus control groups was expressed as T/C.
# Treatments started 1 day after the i.p. tumor transplantation.
# [1] = system: Sp-2 (mouse myeloma, suspension) cells; assay: Surviving tumor cells in cell culture, trypan blue counting; format: cell-based; conditions: Sp-2 cells, compound L 40 microgram/ml
# Method: Experiments with cell culture. Sp-2 (mouse myeloma, suspension) cells were plated on DMEM (Dubelso modified Eagle medium) in the presence of 10% FCS (fetal calf serum). Cells were plated on 96 hole plate with a starting cell number of 10^4/250 μl.
# 48 hours after treatment, i.e., addition of the above listed compounds, cells in the holes were counted in a method of staining them with 10 microliter of tripaneblue following suspension. Counting was done in B{overscore (u)}rker chamber.
# In this case, one portion of cells were plated without the presence of drug, one portion of cells were plated in the presence of 13 microgram/ml fluoroacil, another portion in the presence of 13 microgram/ml fluoroacil+40 microgram/ml compound “L”. Survival rate was examined […] after treatment.
# Wistar rats [2] = assay: Cardiac function by ECG in cisplatin-treated rats; format: in vivo, rat; conditions: cisplatin 50 mg/kg daily, compound L 40 mg/kg daily
# Method: (§2) In vivo experiments with rats. […] The animals were healthy (without any tumor inoculation) at the beginning of the experiment, and the dose of the antitumor compound was provocatively/unusually high which by itself would cause tissue damage with high probability. […] During treatment, cardiac function of animals was followed by ECG, and after two weeks of treatment enzymatic activity in the blood of animals was determined.
# Cardiac function was monitored by AT-6 ECG on all four limbs. QRS, RR, PR and TQ distances and J point depressions were determined.
# S-180 sarcoma = assay: Tumor growth inhibition, S-180 solid tumor in mice; format: in vivo; conditions: single (FIG. 1) or repeated injections (FIG. 2)
# Method: as §1
# In the case of S-180 solid tumor the tumor growth inhibitory effect of compounds was controlled 3 times for a week using digital caliper. Tumor volume was calculated using the following formula: […]
# where “a” and “b” are the shortest and the longest diameter, respectively of a given tumor (Tomayko M. M. and Reynolds C. P.: Determination of subcutaneous tumor size in athymic/nude/mice. Cancer Chemother. Pharmacol, 24, p. 148,1989). Mean values (X) and standard deviations (S.D.) were calculated. The statistically significant difference (p) was determined by Student' t test, where appropriate.
# Wistar rats [3] = assay: One month survival after two week treatment of rats; format: in vivo; conditions: cisplatin 50 mg/kg daily, compound L 40 mg/kg daily
# Method: as §2
# It was investigated how many percent of animals were still alive following a two week treatment detailed above.
# Wistar rats [4] = assay: Tissue damage: intracellular enzyme release into serum of cisplatin-treated rats; format: in vivo, rat; conditions: after two weeks, cisplatin 50 mg/kg daily, compound L 40 mg/kg daily
# Method: as §2
# Tissue damage was evaluated by measuring intracellular release of enzymes. Enzymatic activity was determined by the method of H. U. Bergmeyer. (Methods in Enzymatic Analysis, 2nd edition, Academic Press (1974)/. The following enzymes were measured:
# GOT=glutamate-oxalacetate-transaminase,
# GPT=glutamate-piruvate-transaminase,
# LDH=lactate dehydrogenase,
# LipDH=lipoamide-dehydrogenase,
# Enzymatic activity is given in mUnit/m1 serum.
# BDF1 male mice = assay: Acute toxicity (survival) in normal mice; format: in vivo; conditions: for Survival % / Survivors/Total: 25 days observation
# Method: In vivo experiments with mice. […] [c.f. Oncology Report (REP/O.O.I./1988/01)]. First generation hybrid BDF1 (C57B1 female×DBA/2 male) adult male mice, weighing 22-24 g, specified pathogen free (SPF) were used for these experiments. The animals were kept in macrolon cages at 22-24° C. (40-50% humidity), with a lighting regimen of 12/12 h light/dark.
# The observation period was terminated after 25 days. Of compound “L” doses, the dose of 750 mg/kg body weight, i.p. was lethal (Table 4).
# [5] = group 10: CisPt 10 mg/kg i.p., 1 qd
# [6] = group 13: CisPt 3 mg/kg i.p., 5 qd
# [7] = 48 hours, cisplatin 0.35 microgram/ml
# [8] = 40 hours, fluoroacil 13 microgram/ml
smiles,measurement,setting,value
"N.N.[Cl][Pt][Cl] [Cisplatin, cis-diammine-dichloroplatinum]",T/C %,P-388 leukemia cells; [5],147.0%
same,Long term Percent survival,P-388 leukemia cells; [5],29%
same,Long term Survivors/Total,P-388 leukemia cells; [5],2/7
same,Mean Survival (days),"P-388 leukemia cells; group 10: CisPt 10 mg/kg i.p., 1 qd, non-long-term survivors (5 mice)",16.6 ± 4.6 day⁻¹
same,T/C %,P-388 leukemia cells; [6],257.0%
same,Mean Survival (days),"P-388 leukemia cells; group 13: CisPt 3 mg/kg i.p., 5 qd, 4 mice",29.0 ± 6.1 day⁻¹
same,Long term Percent survival,P-388 leukemia cells; [6],43%
same,Long term Survivors/Total,P-388 leukemia cells; [6],3/7
same,Surviving cell (%),[1]; [7],12 ± 4%
same,J point depression,Wistar rats [2],2.1 ± 0.3 mm
same,QRS,Wistar rats [2],102 ms
same,QRS intensity,Wistar rats [2],fluctuating
same,"Tumor growth inhibitory effect (tumor growth curves, mean tumor volumes)",S-180 sarcoma,significant inhibitory effect
same,One month survival (%),Wistar rats [3],25%
same,Enzymatic activity CK (creatine-kinase),Wistar rats [4],9776 mU/ml
same,Enzymatic activity CS (citrate-synthase),Wistar rats [4],22 mU/ml
same,Enzymatic activity GOT (glutamate-oxalacetate-transaminase),Wistar rats [4],273 mU/ml
same,Enzymatic activity GPT (glutamate-piruvate-transaminase),Wistar rats [4],87 mU/ml
same,Enzymatic activity LDH (lactate dehydrogenase),Wistar rats [4],5136 mU/ml
same,Enzymatic activity LipDH (lipoamide-dehydrogenase),Wistar rats [4],69 mU/ml
"O=c1[nH]cc(F)c(=O)[nH]1 [Fluoroacil, 5-fluoro-2,4(1H,3H)pyrimidinedione]",Surviving cell (%),[1]; [8],13 ± 3%
"Cl.Cl.NC(=NOCC(O)CN1CCCCC1)c1cccnc1 (stereo not drawn) [compound “L”, O-(3-piperidino-2-hydroxyl-1-propyl)niconitic acid amidoxime dihydrochloride]",Surviving cell (%),[1]; [8],51 ± 8%
same,Surviving cell (%),[1]; [7],51 ± 8%
same,Toxicity evaluated on the basis of survival,"BDF1 male mice; compound L 750 mg/kg body weight, i.p.",lethal
same,Survival %,"BDF1 male mice; group 1: 200 mg/kg i.p., 1 qd",100%
same,Survivors/Total,"BDF1 male mice; group 1: 200 mg/kg i.p., 1 qd",7/7
same,Survival %,"BDF1 male mice; group 2: 750 mg/kg i.p., 1 qd",0%
same,Survivors/Total,"BDF1 male mice; group 2: 750 mg/kg i.p., 1 qd",0/7
same,Survival %,"BDF1 male mice; group 3: 2000 mg/kg p.o., 1 qd",100%
same,Survivors/Total,"BDF1 male mice; group 3: 2000 mg/kg p.o., 1 qd",7/7
same,Survival %,"BDF1 male mice; group 4: 100 mg/kg i.p., 5 qd",100%
same,Survivors/Total,"BDF1 male mice; group 4: 100 mg/kg i.p., 5 qd",7/7
same,Toxicity evaluated on the basis of survival,BDF1 male mice; other single compound L treatments (Table 4),no effect on the survival
